Experimental data from patent US20260070945A1, “MACROCYCLIC IMMUNOMODULATORS” (Bristol-Myers Squibb Company, priority 2022, published 2026).
*1 amine or outer side, *2 acyl side, *3 side chain or, on linkers, in order; H or OH if unused. Where a SMILES comes first, the peptide text is derived from it. Bridges are numbered along the chain shown (N, C = ends). [ ]: non-standard residue; d: D form. The star is where a group is joined. Phe(4-COOH) = N[C@@H](Cc1ccc(C(=O)O)cc1)C(=O)O; Bip = N[C@@H](Cc1ccc(-c2ccccc2)cc1)C(=O)O; Phe(3-Cl) = N[C@@H](Cc1cccc(Cl)c1)C(=O)O; Phe(3-Me) = Cc1cccc(C[C@H](N)C(=O)O)c1; X6 = O=C(Cc1ccc(CN[*:1])cc1)[*:2]; Cha = N[C@@H](CC1CCCCC1)C(=O)O; Carboxymethyl = O=C(O)C*; NMeA = CN[C@@H](C)C(=O)O; Orn = NCCC[C@H](N)C(=O)O; Pra = C#CC[C@H](N)C(=O)O; Aun = NCCCCCCCCCCC(=O)O; Dab = NCC[C@H](N)C(=O)O; AEEA = NCCOCCOCC(=O)O

Molecular target: T1, PD-1/PD-L1 interaction (PE-labeled human PD-L1-Ig binding to Jurkat cell line over-expressing human PD-1) (Homo sapiens, UniProt Q15116)
T1 construct: expressed in transfected cells; host or cells: Jurkat
Assay: Jurkat-PD-1 Cell Binding High-Content Screening Assay (CBA)
Conditions: Jurkat-hPD-1 cells, PE-labeled PD-L1-Ig 20 nM final; read-out: Jurkat HPD1 PDL1 IC50
Method in brief: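 Read-out: high-content imaging of cell-bound PE fluorescence, with Hoechst 33342 nuclear counterstain after paraformaldehyde fixation. Before labeled ligand (20 nM final, 1 h) was added, compound sat on the cells for 2 h at 37 °C in DMEM/10% FCS.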

T1 sequence (Q15116 25-288): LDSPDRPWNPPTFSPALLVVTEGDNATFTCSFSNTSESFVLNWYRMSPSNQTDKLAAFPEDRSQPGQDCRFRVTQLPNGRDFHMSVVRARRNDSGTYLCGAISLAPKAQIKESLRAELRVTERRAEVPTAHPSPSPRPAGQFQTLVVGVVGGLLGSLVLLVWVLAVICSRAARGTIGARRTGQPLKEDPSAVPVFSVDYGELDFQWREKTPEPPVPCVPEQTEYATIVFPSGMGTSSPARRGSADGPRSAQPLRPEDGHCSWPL

Row | SMILES | IC50 [nM]
1 | C#CC[C@H](NC(=O)[C@H](CCN)NC(=O)[C@@H]1CSCC(=O)N[C@@H]([C@@H](C)O)C(=O)N[C@@H](Cc2ccc(OCC(=O)O)cc2)C(=O)N[C@@H](CC(=O)O)C(=O)N[C@@H](Cc2cccc(Cl)c2)C(=O)N[C@@H](Cc2ccc(C(=O)O)cc2)C(=O)N[C@@H](Cc2ccc(-c3ccccc3)cc2)C(=O)N[C@@H](Cc2ccc(OCC(=O)O)cc2)C(=O)N(C)[C@@H](C)C(=O)N[C@H](CC(C)C)C(=O)N[C@@H](CCN)C(=O)N[C@@H](CC2CCCCC2)C(=O)N[C@@H](C(C)C)C(=O)N[C@@H]([C@@H](C)O)C(=O)N1)C(=O)NCCCCCCCCCCC(=O)O [Example 1239] ({CH2CO}-TY(Carboxymethyl)D[Phe(3-Cl)][Phe(4-COOH)][Bip]Y(Carboxymethyl)[NMeA][dL][Dab][Cha]VTC[Dab][Pra][Aun]-OH; thioether N-14) | 10.5
2 | C#CC[C@H](NC(=O)[C@H](CCN)NC(=O)[C@@H]1CSCC(=O)N[C@@H]([C@@H](C)O)C(=O)N[C@@H](Cc2ccc(OCC(=O)O)cc2)C(=O)N[C@@H](CC(=O)O)C(=O)N[C@@H](Cc2cccc(C)c2)C(=O)N[C@@H](Cc2ccc(C(=O)O)cc2)C(=O)N[C@@H](Cc2ccc(-c3ccccc3)cc2)C(=O)N[C@@H](Cc2ccc(OCC(=O)O)cc2)C(=O)N(C)[C@@H](C)C(=O)N[C@H](CC(C)C)C(=O)N[C@@H](CCN)C(=O)N[C@@H](CC2CCCCC2)C(=O)N[C@@H](C(C)C)C(=O)N[C@@H]([C@@H](C)O)C(=O)N1)C(=O)NCCCCCCCCCCC(=O)O [Example 1240] ({CH2CO}-TY(Carboxymethyl)D[Phe(3-Me)][Phe(4-COOH)][Bip]Y(Carboxymethyl)[NMeA][dL][Dab][Cha]VTC[Dab][Pra][Aun]-OH; thioether N-14) | 20.7
3 | Cc1cccc(C[C@@H]2NC(=O)[C@H](CC(=O)O)NC(=O)[C@H](Cc3ccc(OCC(=O)O)cc3)NC(=O)[C@H]([C@@H](C)O)NC(=O)CSC[C@@H](C(=O)N[C@@H](CCN)C(=O)N[C@@H](Cc3cn(CC(=O)NCCCNC(=O)c4cc(F)c(F)c(F)c4)nn3)C(=O)NCCCCCCCCCCC(=O)O)NC(=O)[C@H]([C@@H](C)O)NC(=O)[C@H](C(C)C)NC(=O)[C@H](CC3CCCCC3)NC(=O)[C@H](CCN)NC(=O)[C@@H](CC(C)C)NC(=O)[C@H](C)N(C)C(=O)[C@H](Cc3ccc(OCC(=O)O)cc3)NC(=O)[C@H](Cc3ccc(-c4ccccc4)cc3)NC(=O)[C@H](Cc3ccc(C(=O)O)cc3)NC2=O)c1 [Example 1241] | 23.3
4 | CC(C)C[C@@H]1NC(=O)[C@H](Cc2c[nH]c3ccccc23)NC(=O)[C@H](CC(=O)O)NC(=O)[C@H](Cc2ccc(C(=O)O)cc2)NC(=O)[C@H](Cc2ccc(OCC(=O)O)cc2)NC(=O)CSC[C@@H](C(=O)N[C@@H](CCCN)C(=O)NCCOCCOCC(=O)NCCCCCCCCCCC(=O)O)NC(=O)[C@@H](CO)NC(=O)[C@H](C(C)C)NC(=O)[C@H](CC2CCCCC2)NC(=O)[C@H](CCN)NC(=O)[C@@H](CC(C)C)NC(=O)[C@H](C)N(C)C(=O)[C@H](C(C)C)NC(=O)[C@H](Cc2ccc(-c3ccccc3)cc2)NC1=O [Example 1242] ({CH2CO}-Y(Carboxymethyl)[Phe(4-COOH)]DWL[Bip]V[NMeA][dL][Dab][Cha]V[dS]C[Orn][AEEA][Aun]-OH; thioether N-14) | 19.8
5 | CC(C)C[C@@H]1NC(=O)[C@H](Cc2c[nH]c3ccccc23)NC(=O)[C@H](CC(=O)O)NC(=O)[C@H](Cc2ccc(C(=O)O)cc2)NC(=O)[C@H](Cc2ccc(OCC(=O)O)cc2)NC(=O)CSC[C@@H](C(=O)N[C@@H](CCCN)C(=O)NCc2ccc(CC(=O)NCCCCCCCCCCC(=O)O)cc2)NC(=O)[C@H](CO)NC(=O)[C@H](C(C)C)NC(=O)[C@H](CC2CCCCC2)NC(=O)[C@H](CCN)NC(=O)[C@@H](CC(C)C)NC(=O)[C@H](C)N(C)C(=O)[C@H](C(C)C)NC(=O)[C@H](Cc2ccc(-c3ccccc3)cc2)NC1=O [Example 1243] ({CH2CO}-Y(Carboxymethyl)[Phe(4-COOH)]DWL[Bip]V[NMeA][dL][Dab][Cha]VSC[Orn][X6][Aun]-OH; thioether N-14) | 28
